Measured values as given in US12286632B2, “Rationally-designed synthetic peptide shuttle agents for delivering polypeptide cargos from an extracellular space to the cytosol and/or nucleus of a target eukaryotic cell, uses thereof, methods and kits relating to same” (Feldan Bio Inc., priority 2016, dated 2025).

What was measured:
Jurkat cells = assay: GFP-NLS transduction in different adherent and suspension cells (flow cytometry, Pos cells % and viability %); assay type: cell-based, Human; settings: Protocol C, 5 μM shuttle, 5 μM GFP-NLS, 15 seconds
Description: The ability of the shuttle agent His-CM18-PTD4 to deliver GFP-NLS to the nuclei of different adherent and suspension cells using Protocols B (adherent cells) or C (suspension cells) as described in Example 9.1 was examined. The cell lines tested included: HeLa, Balb3T3, HEK 293T, CHO, NIH3T3, Myoblasts, Jurkat, THP-1, CA46, and HT2 cells, which were cultured as described in Example 1. GFP-NLS (5 μM; see Example 5.1) was co-incubated with 35 μM of His-CM18-PTD4 and exposed to adherent cells for 10 seconds (Protocol B), or was co-incubated with 5 μM of His-CM18-PTD4 and exposed to suspension cells for 15 seconds (Protocol C). […] “Pos cells (%)” is the mean percentages of all cells that emanate a GFP signal.

PPIB gene = assay: T7E1 DNA cleavage assay after CRISPR/Cas9-NLS delivery, HeLa cells; assay type: cell-based, Human; settings: shuttle 10 μM; Cas9-NLS 25 nM; HeLa cells 16 h, medium without serum
Excerpt: The T7 endonuclease I (T7E1) can be used to detect on-target CRISPR/Cas genome editing events in cultured cells. As an overview, genomic DNA from target cells is amplified by PCR. The PCR products are then denatured and reannealed to allow heteroduplex formation between wild-type DNA and CRISPR/Cas-mutated DNA. T7E1, which recognizes and cleaves mismatched DNA, is used to digest the heteroduplexes. The resulting cleaved and full-length PCR products are visualized by gel electrophoresis.
The T7E1 assay was performed with the Edit-R™ Synthetic crRNA Positive Controls (Dharmacon #U-007000-05) and the T7 Endonuclease I (NEB, Cat #M0302S). After the delivery of the CRISPR/Cas complex, cells were lysed in 100 μL of Phusion™ High-Fidelity DNA polymerase (NEB #M0530S) laboratory with additives. The cells were incubated for 15-30 minutes at 56° C., followed by deactivation for 5 minutes at 96° C. The plate was briefly centrifuged to collect the liquid at bottom of the wells. 50-μL PCR samples were set up for each sample to be analyzed. The PCR samples were heated to 95° C. for 10 minutes and then slowly (>15 minutes) cooled to room temperature. PCR product (-5 μL) was then separated on an agarose gel (2%) to confirm amplification. 15 μL of each reaction was incubated with T7E1 nuclease for 25 minutes at 37° C. […]

CC[C@H](C)[C@H](NC(=O)[C@H](CCCCN)NC(=O)[C@H](CCCCN)NC(=O)[C@H](Cc1ccccc1)NC(=O)[C@H](CC(C)C)NC(=O)[C@H](CCCCN)NC(=O)[C@H](Cc1c[nH]c2ccccc12)NC(=O)[C@H](CCCCN)NC(=O)[C@H](Cc1c[nH]cn1)NC(=O)[C@H](Cc1c[nH]cn1)NC(=O)[C@H](Cc1c[nH]cn1)NC(=O)[C@H](Cc1c[nH]cn1)NC(=O)[C@H](Cc1c[nH]cn1)NC(=O)[C@@H](N)Cc1c[nH]cn1)C(=O)NCC(=O)N[C@@H](C)C(=O)N[C@H](C(=O)N[C@@H](CC(C)C)C(=O)N[C@@H](CCCCN)C(=O)N[C@H](C(=O)N[C@@H](CC(C)C)C(=O)N[C@H](C(=O)N[C@H](C(=O)NCC(=O)N[C@@H](Cc1ccc(O)cc1)C(=O)N[C@@H](C)C(=O)N[C@@H](CCCNC(=N)N)C(=O)N[C@@H](C)C(=O)N[C@@H](C)C(=O)N[C@@H](C)C(=O)N[C@@H](CCCNC(=N)N)C(=O)N[C@@H](CCC(N)=O)C(=O)N[C@@H](C)C(=O)N[C@@H](CCCNC(=N)N)C(=O)N[C@@H](C)C(=O)O)[C@@H](C)O)[C@@H](C)O)C(C)C)C(C)C [His-CM18-PTD4]
Cell viability (%) (±St. Dev.; n = 3) (Jurkat cells): 73.6 ± 0.7% | Mean % cells with GFP signal (±St. Dev.; n = 3) (Jurkat cells): 30.7 ± 2.2% | delivery of functional CRISPR/Cas9 complex, cleavage of genomic PPIB (in words) (PPIB gene): successfully deliver a functional CRISPR/Cas9 complex to the nucleus of HeLa cells
